Values quoted from earlier work in patent publication US20050037089A1, “Method for promoting bone growth” (priority 2003, published 2005).

In the case of CC[C@H](C)[C@H](NC(=O)[C@H](CCC(=O)O)NC(=O)[C@H](CO)NC(=O)[C@@H](NC(=O)[C@@H](N)CO)C(C)C)C(=O)N[C@@H](CCC(N)=O)C(=O)N[C@@H](CC(C)C)C(=O)N[C@@H](CCSC)C(=O)N[C@@H](Cc1cnc[nH]1)C(=O)N[C@@H](CC(N)=O)C(=O)N[C@@H](CC(C)C)C(=O)NCC(=O)N[C@@H](CCCCN)C(=O)N[C@@H](Cc1cnc[nH]1)C(=O)N[C@@H](CC(C)C)C(=O)N[C@@H](CC(N)=O)C(=O)N[C@@H](CO)C(=O)N[C@@H](CCSC)C(=O)N[C@@H](CCC(=O)O)C(=O)N[C@@H](CCCN=C(N)N)C(=O)N[C@H](C(=O)N[C@@H](CCC(=O)O)C(=O)N[C@@H](Cc1c[nH]c2ccccc12)C(=O)N[C@@H](CC(C)C)C(=O)N[C@@H](CCCN=C(N)N)C(=O)N[C@@H](CCCCN)C(=O)N[C@@H](CCCCN)C(=O)N[C@@H](CC(C)C)C(=O)N[C@@H](CCC(N)=O)C(=O)N[C@@H](CC(=O)O)C(=O)N[C@H](C(=O)N[C@@H](Cc1cnc[nH]1)C(=O)N[C@@H](CC(N)=O)C(=O)N[C@@H](Cc1ccccc1)C(=O)O)C(C)C)C(C)C [hPTH(1-34)], the bone formation (patients with osteoporosis, subcutaneous administration) is listed as “increase bone formation” and the bone density (postmenopausal women, daily subcutaneous administration of 20 μg or 40 μg) is listed as “increase bone density”.
